Measurements as given in patent publication US5807742A, “Neurokinin receptor cell lines” (Merrell Pharmaceuticals Inc., priority 1996, dated 1998).
Starred links: 1 amine or outer side, 2 acyl side, 3 side chain; linkers in the order of their positions; H or OH if unused. Non-standard residues stand in square brackets, D forms with d. Residues, ends and D or L forms follow the SMILES beside them. NMeF = CN[C@@H](Cc1ccccc1)C(=O)O; Suc = O=C(CCC(=O)[*:2])[*:1]

Tests used:
neurokinin A receptor [1] = target: T1, neurokinin A receptor (Bos taurus, UniProt P05363); experiment: [125I]NKA receptor binding (saturation/Scatchard and competition) in B82 cells transfected with pSKR56S cDNA (SKLKB82#n); parameters: species or system bovine; settings: SKLKB82#3 cells; FIG. 4
T1 construct: expressed in transfected cells
T1 sequence (P05363 1-384): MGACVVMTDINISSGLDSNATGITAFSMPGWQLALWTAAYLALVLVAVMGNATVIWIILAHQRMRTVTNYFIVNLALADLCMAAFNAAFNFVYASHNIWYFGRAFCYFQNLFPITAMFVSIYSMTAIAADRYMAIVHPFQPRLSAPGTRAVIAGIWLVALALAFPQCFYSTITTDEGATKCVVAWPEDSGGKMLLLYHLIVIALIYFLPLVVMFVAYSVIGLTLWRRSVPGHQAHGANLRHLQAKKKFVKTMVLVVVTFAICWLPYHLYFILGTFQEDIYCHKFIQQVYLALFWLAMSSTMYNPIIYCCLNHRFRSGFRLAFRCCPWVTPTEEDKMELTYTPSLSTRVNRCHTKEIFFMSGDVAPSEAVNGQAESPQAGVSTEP
Experimental: (§1) The homogenate is centrifuged at 48,000×g for 10 min at 4° C.

[2] = target: T2, NKA receptor (hamster urinary bladder) (Mesocricetus auratus, UniProt P51144); experiment: [125I]NKA receptor binding in hamster urinary bladder membranes (standard control); settings: FIG. 4
T2 construct: the hamster urinary bladder membranes were run as a standard control; from tissue; host or cells: hamster urinary bladder membranes
T2 sequence (P51144 1-384): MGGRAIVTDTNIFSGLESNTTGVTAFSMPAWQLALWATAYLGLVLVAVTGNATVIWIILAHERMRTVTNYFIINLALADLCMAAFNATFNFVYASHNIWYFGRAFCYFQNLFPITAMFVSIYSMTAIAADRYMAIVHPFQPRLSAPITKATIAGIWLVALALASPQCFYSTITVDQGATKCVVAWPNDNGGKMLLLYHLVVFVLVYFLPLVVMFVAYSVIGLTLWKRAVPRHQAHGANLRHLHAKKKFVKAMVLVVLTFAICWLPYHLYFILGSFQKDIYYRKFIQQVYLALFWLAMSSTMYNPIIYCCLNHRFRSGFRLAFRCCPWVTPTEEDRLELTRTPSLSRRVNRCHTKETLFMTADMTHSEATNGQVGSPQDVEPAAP
Experimental: as §1

neurokinin A receptor [3] = target: T1, neurokinin A receptor; experiment: [3H]inositol-1-phosphate (IP1) accumulation in SKLKB82#3 cells; assay type: cell-based, bovine
Experimental: The culture was incubated for 22-24 hours under the same conditions. After this incubation, the cells were washed once with 1.0 ml of IMDM for ten minutes and incubated for ten minutes in 0.2 ml of incubation buffer (IMDM with 10 mM LiCl, 40 ug/ml bacitracin, 4 ug/ml leupeptin, and 4 ug/ml chymostatin). […] The reaction was terminated in 60 minutes by aspiring the media and adding 0.5 ml methanol. The cells were scraped from the wells and placed into chloroform resistant tubes. A second aliquot of 0.5 ml methanol was used to collect the remaining cells. The cell suspensions were mixed with 1.0 ml chloroform and 0.5 ml double distilled water to obtain a two phase separation. After centrifugation at 4200g for 10 minutes, 0.9 ml aliquots of the upper phase were added to 2.0 ml of distilled water and mixed. This mixture was passed through poly prep columns (Bio-Rad Laboratories, Richmond, Calif.) which consisted of 2.0 ml slurry of ten percent anion exchange resin in formate form (AG1-X8, 100-200 mesh, Bio-Rad Laboratories, Richmond, Calif.). The columns were washed three times with 5.0 ml of distilled water and two times with 5.0 ml of 5 mM sodium tetraborate/60 mM sodium formate (Baker, Phillipsburg, N.J.). […] The eluate was mixed with nine ml of Aquamix (West Chem., San Diego, Calif.) and the radioactivity was counted.

Structure (SMILES): CSCC[C@H](NC(=O)[C@H](CC(C)C)NC(=O)CNC(=O)[C@H](Cc1ccccc1)N(C)C(=O)[C@H](Cc1ccccc1)NC(=O)[C@H](CC(=O)O)NC(=O)CCC(=O)O)C(N)=O [senktide] (Suc-DF[NMeF]GLM-NH2)
- potency rank-order, inhibition of [125I]NKA receptor binding (KI) (neurokinin A receptor [1]): followed by Nle^10 NKA (4-10), substance P, and senktide
- potency rank-order, inhibition of [125I]NKA receptor binding (KI) [2]: followed by Nle^10 NKA (4-10), substance P, and senktide
- EC50 (neurokinin A receptor [3]): ~1300 µM
